Tests used:
[1] = indomethacin with PVP, hydrogen bonding; cited from earlier work
[2] = XRPD analysis of crystallinity (amorphous stability) of spray dried dispersions on storage; format: physicochemical; settings: stored at room temperature under vacuum (FIG. 8)
Method: All dispersions were spray dried using a Niro SD spray dryer connected to a nitrogen generator.
Solutions for dispersions were prepared by dissolving griseofulvin, a major excipient (PVP) and a minor excipient in an acetone water co-solvent system. To ensure homogeneity, the dispersions were allowed to mix for eight hours before the dispersion was spray dried using a Niro SD system under nitrogen conditions with an inlet temperature of 65° C. and an outlet temperature of 45° C. The feed rate was around 15% of maximum and the nitrogen flow rates were 20 kg/hr and 2 kg/hr for the drying and atomization rates respectively.
The samples were then stored under constant vacuum for 24 hours to allow for the removal of solvent before being transferred to the required conditions.
A Philips PW37010 X-ray Powder Diffractometer (Philips, Cambridge, UK) was used to analyse the samples for crystallization, with a sample XRPD scans shown in FIGS. 1a and 1b.
This was compressed to produce a flat surface before being loaded into the XRPD. […]
Pure crystalline griseofulvin or flavanone was subjected to the same methodology to produce a standard XRPD scan. A number of peaks were selected from each of these standards to produce a 100% crystalline value expressed as X-ray count/°2Θ these were then compared with the area under the peaks of the dispersions to produce percentage crystallinity values.

[3] = griseofulvin dispersed in PVP (high Tg polymer); cited from earlier work
[4] = Dissolution, USP paddle method; format: physicochemical; settings: pH6.8 buffer at 37 C, 100 rpm (FIG. 11)
Method: Dispersions were prepared as described above containing Gris:PVP 1:1; Gris:PHPMA:PVP 2.5:1.25:1.25, and compared to Gris spray dried without polymer and crystalline Gris. Dissolution data were prepared by placing a small amount of sample in a hard gelatine capsule and following dissolution in pH6.8 buffer at 37 C (with added surfactant if dispersion was required), using a USP paddle method.

For `COc1ccc2c(c1)c(CC(=O)O)c(C)n2C(=O)c1ccc(Cl)cc1` [Indomethacin], the amorphous stability [1] is listed as “above that expected on the basis of glass transition temperature alone”.

For `O=C1CC(c2ccccc2)Oc2ccccc21` (centres unmarked) [Flavanone], the “crystallinity by XRPD” value ([2]; Flavanone dispersed with PVP) was “near completely crystalline” and the “crystallinity by XRPD” value ([2]; Flavanone dispersed with a combination of PHPMA and PVP) was “only partial crystallinity”.

For `COC1=CC(=O)C[C@@H](C)[C@]12Oc1c(Cl)c(OC)cc(OC)c1C2=O` [griseofulvin, Griseofulvin], the “crystallisation of drug dispersed in polymer” value [3] is listed as “relatively rapid crystallisation” and the dissolution [4] is listed as “slow dissolution”.
